The values that follow come from publication PMC9332707, “Bio-Guided Isolation of SARS-CoV-2 Main Protease Inhibitors from Medicinal Plants: In Vitro Assay and Molecular Dynamics” (Plants, 2022).

SMILES strings stand for the structures. Values after ≈ are worked out from the molar mass of the structure shown. Read-outs that look alike come from different tables or passages of the source. Some results are limits rather than exact numbers.

The conditions of data set [1]: cited from earlier work.
A further data set relates to SARS-CoV-2 infection. Also on record: method as in PMID 33203926. The settings on record: read-out: IC50 against SARS-CoV-2 infection; cited from earlier work.
Another data set deals with SARS-CoV-2 M^PRO (Severe acute respiratory syndrome coronavirus 2, UniProt P0DTD1). Briefly: biochemical. It is filed as biochemical.
The test system of data set [2] is SARS-CoV-2 (hCoV-19/Egypt/NRC-03/2020). The data set is described as follows: microbe, parasite or virus in culture. It is filed as cell-based. The settings on record: for selectivity index CC50/IC50: CC50 (VERO-E6) / antiviral IC50.
On the set-up of data set [3]: method as in PMID 33203926. The note with it: cited from earlier work.
A further data set in a line: MTT cytotoxicity assay. The note with it: African green monkey. (Formazan colour is commonly taken as a measure of viable cells.)
A short description of another data set: in vitro. The settings on record: African green monkey.
A further data set has as its system M^PRO. The settings on record: read-out: reported bioassay IC50 (M^PRO); reported for the co-crystallized inhibitors (PDB 7CBT, 6W63); ref not given; cited from earlier work.
On the set-up of data set [4]: method as in earlier work. The note with it: dose of 5 mg/day to 2600 mg/day, without any toxic symptoms; cited from earlier work.
Details of data set [5]: method as in PMID 24924310. The settings on record: cited from earlier work.
The mark [6] stands for this setting: Severe acute respiratory syndrome coronavirus 2, Vero C1008, read-out: IC50 antiviral activity against SARS-CoV-2.
The mark [7] stands for this setting: relative to GC376 standard inhibitor, read-out: IC50 on SARS-CoV-2 viral main protease.
The mark [8] stands for this setting: Severe acute respiratory syndrome coronavirus 2, Vero C1008, hCoV-19/Egypt/NRC-03/2020 on Vero-E6 cells, read-out: IC50 antiviral activity against SARS-CoV-2.

As for `CCCCC[C@H](O)CC(=O)CCc1ccc(O)c(OC)c1` [6-Gingerol], the “absorption after oral administration” value in data set [1] (detected in blood as glucuronide and sulfate conjugates) is “well-absorbed”. The “toxicity / tolerability in humans” value in data set [1] (doses up to 2.0 g daily, only mild gastrointestinal complaints) is “low levels of toxicity and high levels of tolerability”. Besides, the values for the IC50 (with SARS-CoV-2 infection; at SARS-CoV-2 M^PRO; in [2] (setting [6])) were more than 100 µM, 9.33 µM and 43.5 µg/mL (≈ 148 µM), respectively. For the same compound, the “% Inhibition of SARS-CoV-2 M^PRO by isolated compounds” value (from here on “% Inhibition of SARS-CoV-2 M^PRO”) at SARS-CoV-2 M^PRO is 65.2%. Also, the “selectivity index CC50/IC50” value in data set [2] came out at 2.3. For the same compound, the CC50 in data set [3] was more than 100 µM; in the data set “MTT cytotoxicity assay”, 101 µg/mL (≈ 344 µM).

`CCCCCCCC(=O)CCc1ccc(O)c(OC)c1` [6-Paradol] registered a CC50 in the data set “in vitro” of 155 µg/mL (≈ 557 µM). Besides, the “% Inhibition of SARS-CoV-2 M^PRO” value at SARS-CoV-2 M^PRO (FRET assay, isolated compounds) came to 71.8%. Besides, the IC50 (usually the concentration at which inhibition is half-maximal) on SARS-CoV-2 M^PRO (setting [7]) was 0.168 µM; in [2] (setting [8]), 281 µg/mL (≈ 1010 µM). The “selectivity index CC50/IC50” value in [2] was 0.6.

For the compound `CC(C)C[C@H](NC(=O)OCc1ccccc1)C(=O)N[C@@H](CC1CCNC1=O)C(O)S(=O)(=O)O` (stereo partly drawn) [GC376], the IC50 in the data set with M^PRO was 26 nM.

Turning to `COc1cc(-c2cc(=O)c3c(O)c(OC)c(OC)c(OC)c3o2)cc(OC)c1OC` [Gardenin A], in the data set “in vitro”, the CC50 was 246 µg/mL (≈ 589 µM). In addition, the “% Inhibition of SARS-CoV-2 M^PRO” value on SARS-CoV-2 M^PRO was determined as 73.80%. The figures for the IC50 (on SARS-CoV-2 M^PRO (setting [7]); in data set [2] (setting [8])) were 5.96 µM and 83.8 µg/mL (≈ 200 µM), respectively. For the same compound, the “selectivity index CC50/IC50” value in data set [2] is given as 2.9.

Take `COc1ccc(-c2cc(=O)c3c(O)c(OC)c(OC)c(OC)c3o2)cc1` [Gardenin B]: the “% Inhibition of SARS-CoV-2 M^PRO” value at SARS-CoV-2 M^PRO worked out at 1.00%.

On to `CC1=CC(=O)C(C(C)C)=CC1=O` [Thymoquinone], for which the clinical safety result in data set [4] is listed as “safe”. Besides, at SARS-CoV-2 M^PRO (FRET assay, isolated compounds), the “% Inhibition of SARS-CoV-2 M^PRO” value was found to be 63.21%. Besides, the IC50 came out at 10.3 µM at SARS-CoV-2 M^PRO (setting [7]) and 6.14 µg/mL (≈ 37.4 µM) in [2] (setting [6]). The elimination entry in data set [5] (after oral and IV administration) is on record as “rapid-elimination properties”. Besides, in data set [5] (oral), the “absorption following oral administration” value is recorded as “relatively slower absorption”. The “selectivity index CC50/IC50” value in data set [2] is given as 1.33. In “MTT cytotoxicity assay” (VERO-E6 cells), the CC50 amounted to 8.2 µg/mL (≈ 49.9 µM).

For the compound `CC(C)(C)c1ccc(N(C(=O)c2cnc[nH]2)[C@@H](C(=O)NC2CCCCC2)c2cccnc2)cc1` [X77], in the data set on M^PRO, the IC50 was 2300 nM.
